Legend:
[1] = biological target: Cathepsin L (Homo sapiens, UniProt P07711); assay: Cathepsin L enzyme assay; format: biochemical; conditions: Ki by Morrison equation; pH 5.5, substrate Z-Phe-Arg-Amc; read-out: Cat L
Description: Two wells contained DMSO only for controls.
Velocity was converted to μM/sec.

[2] = biological target: Calpain; assay: Calpain enzyme assay; format: biochemical; conditions: Ki by Morrison equation; pH 7.5, 5 mM CaCl2
[3] = biological target: Cathepsin B (Homo sapiens, UniProt P07858); assay: Cathepsin B enzyme assay; conditions: Cat B (μM), Ki by Morrison equation; pH 6.0, substrate Z-Phe-Arg-Amc

Sequence of Cathepsin L (P07711 114-333, species assumed): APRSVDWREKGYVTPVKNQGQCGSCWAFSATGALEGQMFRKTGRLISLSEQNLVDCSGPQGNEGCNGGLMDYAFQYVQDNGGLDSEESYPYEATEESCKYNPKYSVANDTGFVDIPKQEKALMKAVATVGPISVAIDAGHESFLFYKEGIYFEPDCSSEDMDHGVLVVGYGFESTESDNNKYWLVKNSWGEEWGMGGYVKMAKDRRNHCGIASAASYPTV

Ki [1]	Ki [2]	Ki [3]	SMILES
816 nM	> 100000 nM	0.0318 µM	CCC(C)C(NC(=O)C(=O)C(C)NC(=O)C(Cc1ccccc1)NC(=O)Cc1ccccc1)C(=O)NC(C)(C)C(=O)O (stereo not shown) [PHELIX149, 12-benzyl-5-(sec-butyl)-2,2,9-trimethyl-4,7,8,11,14-pentaoxo-15-phenyl-3,6,10,13-tetraazapentadecanoic acid]
39.2 nM	5110 nM	0.0303 µM	CCC(C)C(NC(=O)C(=O)C(Cc1ccccc1)NC(=O)C(Cc1ccccc1)NC(=O)Cc1ccccc1)C(=O)NC(C)(C)C(=O)O (stereo not shown) [PHELIX150, 9,12-dibenzyl-5-(sec-butyl)-2,2-dimethyl-4,7,8,11,14-pentaoxo-15-phenyl-3,6,10,13-tetraazapentadecanoic acid]
1.58 nM	9850 nM	0.0102 µM	CC[C@H](C)[C@H](NC(=O)C(=O)C(Cc1ccccc1)NC(=O)C(Cc1ccccc1)NC(=O)Cc1ccccc1)C(=O)N1CCC[C@H]1C(=O)O (stereo partly shown) [PHELIX156, (2-oxo-4-phenyl-3-(3-phenyl-2-(2-phenylacetamido)propanamido)butanoyl)isoleucylproline]
56.2 nM	34600 nM	0.0028 µM	CC(NC(=O)C(Cc1ccccc1)NC(=O)Cc1ccccc1)C(=O)C(=O)NC(Cc1ccccc1)C(=O)NC(C)(C)C(=O)O (stereo not shown) [PHELIX157, 5,12-dibenzyl-2,2,9-trimethyl-4,7,8,11,14-pentaoxo-15-phenyl-3,6,10,13-tetraazapentadecanoic acid]
2450 nM	16600 nM	0.0414 µM	CCC(C)C(NC(=O)C(=O)C(C)NC(=O)C(Cc1ccccc1)NC(=O)Cc1ccc(-c2ccccc2)cc1)C(=O)NC(C)(C)C(=O)O (stereo not shown) [PHELIX159, 15-([1,1′-biphenyl]-4-yl)-12-benzyl-5-(sec-butyl)-2,2,9-trimethyl-4,7,8,11,14-pentaoxo-3,6,10,13-tetraazapentadecanoic acid]
1990 nM	–	0.0549 µM	CCC(C)C(NC(=O)C(=O)C(C)NC(=O)C(Cc1ccccc1)NC(=O)Cc1ccc2ccccc2c1)C(=O)NC(C)(C)C(=O)O (stereo not shown) [PHELIX161, 12-benzyl-5-(sec-butyl)-2,2,9-trimethyl-15-(naphthalen-2-yl)-4,7,8,11,14-pentaoxo-3,6,10,13-tetraazapentadecanoic acid]
402 nM	–	0.03 µM	CC(NC(=O)C(Cc1ccccc1)NC(=O)Cc1ccccc1)C(=O)C(=O)NC(Cc1cccc2ccccc12)C(=O)NC(C)(C)C(=O)O (stereo not shown) [PHELIX162, 12-benzyl-2,2,9-trimethyl-5-(naphthalen-1-ylmethyl)-4,7,8,11,14-pentaoxo-15-phenyl-3,6,10,13-tetraazapentadecanoic acid]
429 nM	–	0.0485 µM	CCC(C)C(NC(=O)C(=O)C(C)NC(=O)C(Cc1ccccc1)NC(=O)Cc1cccc2ccccc12)C(=O)NC(C)(C)C(=O)O (stereo not shown) [PHELIX163, 12-benzyl-5-(sec-butyl)-2,2,9-trimethyl-15-(naphthalen-1-yl)-4,7,8,11,14-pentaoxo-3,6,10,13-tetraazapentadecanoic acid]
453 nM	–	0.0736 µM	CCC(C)C(NC(=O)C(=O)C(C)NC(=O)C(Cc1ccc(-c2ccccc2)cc1)NC(=O)Cc1ccccc1)C(=O)NC(C)(C)C(=O)O (stereo not shown) [PHELIX165, 12-([1,1′-biphenyl]-4-ylmethyl)-5-(sec-butyl)-2,2,9-trimethyl-4,7,8,11,14-pentaoxo-15-phenyl-3,6,10,13-tetraazapentadecanoic acid]
2600 nM	–	0.273 µM	CCC(C)C(NC(=O)C(=O)C(C)NC(=O)C(Cc1ccc(C(C)(C)C)cc1)NC(=O)Cc1ccccc1)C(=O)NC(C)(C)C(=O)O (stereo not shown) [PHELIX167, 5-(sec-butyl)-12-(4-(tert-butyl)benzyl)-2,2,9-trimethyl-4,7,8,11,14-pentaoxo-15-phenyl-3,6,10,13-tetraazapentadecanoic acid]
1270 nM	–	0.519 µM	CCC(C)C(NC(=O)C(=O)C(C)NC(=O)C(Cc1ccc(C(F)(F)F)cc1)NC(=O)Cc1ccccc1)C(=O)NC(C)(C)C(=O)O (stereo not shown) [PHELIX168, 5-(sec-butyl)-2,2,9-trimethyl-4,7,8,11,14-pentaoxo-15-phenyl-12-(4-(trifluoro-methyl)benzyl)-3,6,10,13-tetraazapentadecanoic acid]
520 nM	–	0.0746 µM	CCC(C)C(NC(=O)C(=O)C(C)NC(=O)C(Cc1ccc(F)cc1)NC(=O)Cc1ccccc1)C(=O)NC(C)(C)C(=O)O (stereo not shown) [PHELIX172, 5-(sec-butyl)-12-(4-fluorobenzyl)-2,2,9-trimethyl-4,7,8,11,14-pentaoxo-15-phenyl-3,6,10,13-tetraazapentadecanoic acid]
461 nM	–	0.157 µM	CC[C@H](C)[C@H](NC(=O)C(=O)C(Cc1ccccc1)NC(=O)C(Cc1ccccc1)NC(=O)Cc1ccccc1)C(=O)N1CSCC1C(=O)O (stereo partly shown) [PHELIX174, 3-((2-oxo-4-phenyl-3-(3-phenyl-2-(2-phenylacetamido)propanamido)butanoyl)isoleucyl)thiazolidine-4-carboxylic acid]
108 nM	–	0.0069 µM	CCC(C)C(NC(=O)C(=O)C(C)NC(=O)C(Cc1cccc(C)c1)NC(=O)Cc1ccccc1)C(=O)NC(C)(C)C(=O)O (stereo not shown) [PHELIX175, 5-(sec-butyl)-2,2,9-trimethyl-12-(3-methylbenzyl)-4,7,8,11,14-pentaoxo-15-phenyl-3,6,10,13-tetraazapentadecanoic acid]
2690 nM	–	0.0378 µM	CCC(C)C(NC(=O)C(=O)C(C)NC(=O)C(Cc1cccc(C#N)c1)NC(=O)Cc1ccccc1)C(=O)NC(C)(C)C(=O)O (stereo not shown) [PHELIX176, 5-(sec-butyl)-12-(3-cyanobenzyl)-2,2,9-trimethyl-4,7,8,11,14-pentaoxo-15-phenyl-3,6,10,13-tetraazapentadecanoic acid]
92.2 nM	–	0.0012 µM	CC(NC(=O)C(Cc1ccccc1)NC(=O)Cc1ccccc1)C(=O)C(=O)NC(CC1CCCCC1)C(=O)NC(C)(C)C(=O)O (stereo not shown) [PHELIX177, 12-benzyl-5-(cyclohexylmethyl)-2,2,9-trimethyl-4,7,8,11,14-pentaoxo-15-phenyl-3,6,10,13-tetraazapentadecanoic acid]
38.5 nM	–	0.0067 µM	CC(NC(=O)C(Cc1ccccc1)NC(=O)Cc1ccccc1)C(=O)C(=O)N[C@@H](Cc1ccccc1)C(=O)N1CCC[C@H]1C(=O)O (stereo partly shown) [PHELIX178, (2-oxo-3-(3-phenyl-2-(2-phenylacetamido)propanamido)butanoyl)phenylalanyl proline]
881 nM	–	17.8 µM	CCC(C)C(NC(=O)C(=O)C(C)NC(=O)C(Cc1ccccc1)NC(=O)Cc1ccccc1)C(=O)NC(C)(C)C(=O)OC (stereo not shown) [PHELIX179, methyl 12-benzyl-5-(sec-butyl)-2,2,9-trimethyl-4,7,8,11,14-pentaoxo-15-phenyl-3,6,10,13-tetraazapentadecanoate]
127 nM	–	0.197 µM	CC(NC(=O)C(Cc1ccccc1)NC(=O)Cc1ccccc1)C(=O)C(=O)NC(Cc1ccc(C(C)(C)C)cc1)C(=O)NC(C)(C)C(=O)O [PHELIX180, (5S,12)S-12-benzyl-5-(4-(tert-butyl)benzyl)-2,2,9-trimethyl-4,7,8,11,14-pentaoxo-15-phenyl-3,6,10,13-tetraazapentadecanoic acid]

From patent publication US20190085024A1, “Alpha-Ketoamide Inhibitors Of Cysteine Proteases” (Phelix Therapeutics, priority 2017, published 2019)
